13 compounds from patent publication US12595253B2, “Benzamides of pyrazolylamino-pyrimidinyl derivatives, and compositions and methods thereof” (LYNK PHARMACEUTICALS CO. LTD., priority 2019, dated 2026) can be followed below.

Data set [1] can be described thus: Liver microsomes study, Phase I stability (HLM). Conditions: pH 7.4; human liver microsomes 0.5 mg/mL, 1 μM test article; read-out: HLM Clint. The format is in vitro ADME, human. As to the method:
(§1) Commercially available liver microsomes (MsLM vendor: XENOTECH; RLM, DLM, MkL, HLM vendor: Corning) were used for study the Phase I stability of test articles. […] The reaction was initiated by addition of 80 μL of the NADPH regenerating system to 320 µL of each incubation mixture per time point. […] The 0-minute samples were prepared by addition of an 80 μL aliquot of each incubation mixture to 400 μL quench reagent to precipitate proteins. And then a 20 μL aliquot of the NADPH regenerating system was added. At 10, 30, and 90 minutes, the reaction will be stopped by the addition of cold acetonitrile solution containing tolbutamide and propanolol served as internal standard. The samples taken at all time points were centrifuged at 4000×g for 15 minutes. 80 μL of supernatant are taken into 96-well assay plates pre-added with 160 μL ultrapure water, and then analyzed by LC/MS/MS(Shimadzu LC30AD & API4000/API5000)). Concentrations of test articles, control compounds in the samples were determined by using LC/MS/MS) method. Plotting of the chromatograms and peak area integrations are carried out by Analyst (AB Sciex).
(§2) In the determination of the in vitro elimination constant, ke, of the control compounds, the analyte/internal standard peak area ratios will be converted to percentage remaining (% Remaining) with the following equation: […]
(§3) The slope was measured by the natural logarithm of the percentage of the residual compound and time, T½ and CLint were calculated according to the following formulas, V/M was equal to the 1/concentration of protein.
A general note: Liver microsomes are vesicles of endoplasmic reticulum, rich in cytochrome P450 enzymes.

The nature of data set [2]: Liver microsomes study, Phase I stability (RLM). It is filed as in vitro ADME, rat. The following applies: pH 7.4; rat liver microsomes 0.5 mg/mL, 1 μM test article; read-out: RLM Clint. As to the method:
as §1, §2, §3

In another data set the target is T1, JAK2 (Homo sapiens, UniProt O60674).
T1 construct: purchased Carna Biosciences
T1 sequence (O60674 whole entry): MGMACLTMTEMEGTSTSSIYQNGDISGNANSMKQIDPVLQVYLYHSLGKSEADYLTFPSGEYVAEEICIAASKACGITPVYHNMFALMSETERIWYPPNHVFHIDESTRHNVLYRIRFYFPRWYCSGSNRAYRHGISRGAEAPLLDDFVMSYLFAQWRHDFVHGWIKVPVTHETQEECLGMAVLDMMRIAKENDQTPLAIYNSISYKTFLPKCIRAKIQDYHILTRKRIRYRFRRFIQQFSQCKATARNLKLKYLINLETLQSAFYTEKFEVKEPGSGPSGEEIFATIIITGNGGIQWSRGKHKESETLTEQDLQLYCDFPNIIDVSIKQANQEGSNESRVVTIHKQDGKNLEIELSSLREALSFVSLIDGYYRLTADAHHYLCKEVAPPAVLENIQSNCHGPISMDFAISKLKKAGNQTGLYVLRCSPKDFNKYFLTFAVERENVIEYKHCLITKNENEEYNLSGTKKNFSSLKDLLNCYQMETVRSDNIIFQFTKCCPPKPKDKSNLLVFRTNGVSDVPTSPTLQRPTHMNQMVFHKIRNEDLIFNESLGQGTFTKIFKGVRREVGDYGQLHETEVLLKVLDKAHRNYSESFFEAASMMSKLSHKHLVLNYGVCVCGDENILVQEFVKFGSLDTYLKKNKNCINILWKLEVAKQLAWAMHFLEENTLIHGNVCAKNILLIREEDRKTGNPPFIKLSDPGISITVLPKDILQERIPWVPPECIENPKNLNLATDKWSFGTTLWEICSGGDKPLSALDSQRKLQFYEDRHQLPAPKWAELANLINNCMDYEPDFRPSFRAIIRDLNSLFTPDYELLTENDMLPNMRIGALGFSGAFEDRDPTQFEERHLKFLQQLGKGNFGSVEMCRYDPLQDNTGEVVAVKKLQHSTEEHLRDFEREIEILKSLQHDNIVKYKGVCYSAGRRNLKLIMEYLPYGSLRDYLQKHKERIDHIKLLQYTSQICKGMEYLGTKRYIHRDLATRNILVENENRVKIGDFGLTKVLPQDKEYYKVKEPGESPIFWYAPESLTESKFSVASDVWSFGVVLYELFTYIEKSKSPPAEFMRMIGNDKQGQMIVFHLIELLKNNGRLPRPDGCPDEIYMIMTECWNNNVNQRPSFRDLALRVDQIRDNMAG
Nature of the data set: JAK2 microfluidic kinase assay (Caliper EZ Reader II, FAM labeled peptide substrate). The format is biochemical. A digest of the protocol:
(§4)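 3-fold serial dilutions, top 5 μM, 1% DMSO final; 10 min preincubation with enzyme, RT. Buffer: 50 mM HEPES, 0.01% Brij35, 10 mM MgCl2, 2 mM DTT. Enzyme batch tuned to 10% peptide conversion. EDTA stop, mobility-shift readout, IC50 fit.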

The target in another data set is T2, JAK1 (Homo sapiens, UniProt P23458).
T2 construct: purchased Carna Biosciences
T2 sequence (P23458 whole entry): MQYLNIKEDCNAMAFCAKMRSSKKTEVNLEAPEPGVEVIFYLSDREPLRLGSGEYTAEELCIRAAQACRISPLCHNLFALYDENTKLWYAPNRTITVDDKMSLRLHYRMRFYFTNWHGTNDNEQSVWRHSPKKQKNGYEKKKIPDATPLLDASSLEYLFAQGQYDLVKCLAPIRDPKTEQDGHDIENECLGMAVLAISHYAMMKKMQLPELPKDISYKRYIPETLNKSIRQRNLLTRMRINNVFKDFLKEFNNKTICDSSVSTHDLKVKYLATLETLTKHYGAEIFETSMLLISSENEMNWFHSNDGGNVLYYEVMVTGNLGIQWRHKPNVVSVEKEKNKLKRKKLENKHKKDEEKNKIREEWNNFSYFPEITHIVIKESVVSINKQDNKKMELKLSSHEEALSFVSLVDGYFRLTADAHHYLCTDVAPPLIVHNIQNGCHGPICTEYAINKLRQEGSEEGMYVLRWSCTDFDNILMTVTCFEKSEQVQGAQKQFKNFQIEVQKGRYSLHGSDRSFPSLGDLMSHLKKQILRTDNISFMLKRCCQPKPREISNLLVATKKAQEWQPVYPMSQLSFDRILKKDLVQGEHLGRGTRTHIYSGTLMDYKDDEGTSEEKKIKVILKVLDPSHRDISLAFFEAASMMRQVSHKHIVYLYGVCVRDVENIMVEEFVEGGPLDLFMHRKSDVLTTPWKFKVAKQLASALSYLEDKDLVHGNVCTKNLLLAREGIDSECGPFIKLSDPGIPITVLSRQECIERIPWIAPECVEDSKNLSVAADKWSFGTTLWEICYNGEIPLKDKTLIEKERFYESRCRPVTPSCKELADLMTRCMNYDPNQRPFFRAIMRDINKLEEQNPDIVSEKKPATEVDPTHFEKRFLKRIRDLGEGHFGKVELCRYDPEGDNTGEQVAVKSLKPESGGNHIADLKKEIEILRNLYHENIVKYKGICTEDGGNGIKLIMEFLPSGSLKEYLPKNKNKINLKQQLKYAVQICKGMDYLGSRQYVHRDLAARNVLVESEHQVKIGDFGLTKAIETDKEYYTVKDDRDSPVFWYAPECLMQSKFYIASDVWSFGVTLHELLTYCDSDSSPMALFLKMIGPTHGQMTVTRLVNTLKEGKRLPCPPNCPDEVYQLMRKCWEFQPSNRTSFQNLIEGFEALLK
Description: JAK1 microfluidic kinase assay (Caliper EZ Reader II, FAM labeled peptide substrate). It is filed as biochemical. In short, it runs like this:
as §4

The next data set has as its target T3, TYK2 (Homo sapiens, UniProt P29597).
T3 construct: purchased Carna Biosciences
Description: TYK2 microfluidic kinase assay (Caliper EZ Reader II, FAM labeled peptide substrate). It is filed as biochemical. In short, it runs like this: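 Kinase activity was measured in 50 mM HEPES, 0.01% Brij35, 10 mM MgCl2, 2 mM DTT with enzyme set for 10% peptide conversion. Compounds (3-fold dilutions from 5 μM top, 1% DMSO) were pre-incubated 10 min at ambient temperature. Reaction times: JAK1 120 min, JAK2 20 min, JAK2V617F 30 min, TYK2 10 min. EDTA stop.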

The target in the next data set is T4, JAK2V617F (Homo sapiens, UniProt O60674, V617F).
T4 construct: purchased Carna Biosciences
T4 sequence (O60674 whole entry V617F): as the sequence (O60674 whole entry) above, with V617F counted along it
Description: JAK2V617F microfluidic kinase assay (Caliper EZ Reader II, FAM labeled peptide substrate). It is filed as biochemical. Conditions: JAK2V617F 2.5 nM, 1 mM ATP. A digest of the protocol:
as §4

The nature of data set [3]: Rat pharmacokinetic study (intravenous and oral). The format is in vivo. The following applies: male, plasma, Sprague-Dawley rats, intravenous, 1 mg/kg, solution. As to the method: Pharmacokinetic profile of test articles in rodent were evaluated in fasted male ICR mouse and Sprague-Dawley rats. […] Typically, mice were dosed with 2 mg/kg and 10 mg/kg by intravenous injection and oral gavage, respectively. Rats were dosed with 1 mg/kg and 5 mg/kg by intravenous injection and oral gavage, respectively. Beagle dogs were dosed with 1 mg/kg and 5 mg/kg by intravenous injection and oral gavage, respectively. After dosing, blood samples were collected at each time point. For IV injection group, time points were set at 5, 15, 30 min, and then 1, 2, 4, 8 and 24 hours after dosing. For oral gavage group, timepoints were set at 15, 30 m, and then 1, 2, 4, 8, and 24 hours. Blood was collected into appropriately labeled tubes containing K2EDTA as the anticoagulant. Plasma was obtained within 1 hours of blood collection by centrifugation at 8000×g and 4° C. for 6 minutes, and then stored at −20° C. until analyzed by LCMS/MS for quantification.

Setting [4] is: IC50 JAK2 ([…]) (1 mM ATP), 1 mM ATP.
Setting [5] is: IC50 JAK1 (5 nM) (1 m MATP), JAK1 5 nM, 1 mM ATP.
The mark [6] stands for this setting: IC50 TYK2 ([…]) (1 mM ATP), TYK2 […], 1 mM ATP.
[7] abbreviates: IC50 JAK2 ([…]) (Km ATP), Km ATP.
The mark [8] stands for this setting: IC50 TYK2 (10 nM) (Km ATP), TYK2 10 nM, Km ATP.

T3 sequence (P29597 whole entry): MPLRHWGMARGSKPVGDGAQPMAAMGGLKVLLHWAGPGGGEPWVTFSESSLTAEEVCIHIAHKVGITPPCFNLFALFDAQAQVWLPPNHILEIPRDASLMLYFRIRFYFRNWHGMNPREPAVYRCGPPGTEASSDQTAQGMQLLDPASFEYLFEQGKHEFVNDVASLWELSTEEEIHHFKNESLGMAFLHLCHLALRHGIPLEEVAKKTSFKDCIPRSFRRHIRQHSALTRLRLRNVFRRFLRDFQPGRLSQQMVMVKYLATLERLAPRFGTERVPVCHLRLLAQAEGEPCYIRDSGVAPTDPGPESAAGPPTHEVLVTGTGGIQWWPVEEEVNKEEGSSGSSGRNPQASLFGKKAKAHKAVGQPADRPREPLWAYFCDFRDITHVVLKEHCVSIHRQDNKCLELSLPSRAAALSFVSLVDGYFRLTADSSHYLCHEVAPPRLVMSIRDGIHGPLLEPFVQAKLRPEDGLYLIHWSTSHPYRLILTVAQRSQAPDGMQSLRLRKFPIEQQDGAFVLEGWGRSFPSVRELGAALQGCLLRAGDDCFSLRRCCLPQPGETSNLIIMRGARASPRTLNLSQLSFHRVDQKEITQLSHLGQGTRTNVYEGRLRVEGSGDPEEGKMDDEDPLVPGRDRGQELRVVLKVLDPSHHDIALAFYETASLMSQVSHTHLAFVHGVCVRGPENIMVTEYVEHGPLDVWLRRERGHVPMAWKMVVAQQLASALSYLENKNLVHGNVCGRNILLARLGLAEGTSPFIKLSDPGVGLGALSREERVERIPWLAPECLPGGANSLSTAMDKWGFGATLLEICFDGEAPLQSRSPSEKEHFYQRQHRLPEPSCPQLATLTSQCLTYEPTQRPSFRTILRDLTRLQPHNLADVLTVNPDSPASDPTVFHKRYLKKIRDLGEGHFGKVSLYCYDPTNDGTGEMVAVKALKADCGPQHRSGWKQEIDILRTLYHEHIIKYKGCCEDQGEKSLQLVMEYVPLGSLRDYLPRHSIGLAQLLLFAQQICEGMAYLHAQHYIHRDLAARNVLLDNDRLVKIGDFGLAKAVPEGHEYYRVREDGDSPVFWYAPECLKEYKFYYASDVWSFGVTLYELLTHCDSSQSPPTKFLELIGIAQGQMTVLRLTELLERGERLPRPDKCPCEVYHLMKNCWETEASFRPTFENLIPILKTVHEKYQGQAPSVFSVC

On to `CC[C@@H](C#N)NC(=O)c1ccc(-c2nc(Nc3cnn(C4CC(C)(C)OC(C)(C)C4)c3)ncc2Cl)cc1` [Example 182, (S)-4-(5-Chloro-2-((1-(2,2,6,6-tetramethyltetrahydro-2H-pyran-4-yl)-1H-pyrazol-4-yl)amino)pyrimidin-4-yl)-N-(1-cyanopropyl)benzamide], for which the results for the microsomal CLint at 1 μM in data set [1] and in data set [2] were 180 µL/min/mg and 51.9 µL/min/mg, respectively. In addition, the IC50 (as a rule, the concentration that gives 50% inhibition) is < 0.25 nM on JAK2 (setting [4]), 8.65 nM on JAK1 (setting [5]) and 0.58 nM against TYK2 (setting [6]).

Regarding `Cc1cnc(Nc2cnn(C3CCOCC3)c2)nc1-c1ccc(C(=O)NCC2(C#N)CC2)cc1` [Example 37, N-((1-cyanocyclopropyl)methyl)-4-(5-methyl-2-((1-(tetrahydro-2H-pyran-4-yl)-1H-pyrazol-4-yl)amino)pyrimidin-4-yl)benzamide], the microsomal CLint at 1 μM in data set [1] was found to be 20.7 µL/min/mg; in data set [2], 40.7 µL/min/mg. Further, the IC50 at JAK2 (setting [4]) came to 50.5 nM; at JAK2 (setting [7]), 0.54 nM; at TYK2 (setting [8]), 28.8 nM.

`Cc1cnc(Nc2cnn(C3CCN(C)CC3)c2)nc1-c1ccc(C(=O)N[C@H](C#N)C2CC2)cc1` [Example 180, (S)—N-(cyano(cyclopropyl)methyl)-4-(5-methyl-2-((1-(1-methylpiperidin-4-yl)-1H-pyrazol-4-yl)amino)pyrimidin-4-yl)benzamide]: the figures for the microsomal CLint at 1 μM in data set [1] and in data set [2] were 23.1 µL/min/mg and 91.8 µL/min/mg, respectively. The IC50 on JAK2 (setting [4]) came to 0.59 nM; against JAK1 (setting [5]), 0.85 nM; against TYK2 (setting [6]), 1.04 nM.

Consider `Cc1cnc(Nc2cnn(C(C)C(F)(F)F)c2)nc1-c1ccc(C(=O)N[C@@H](C)C#N)cc1` (stereo partly drawn) [Example 166, N—((S)-1-Cyanoethyl)-4-(5-methyl-2-((1-(1,1,1-trifluoropropan-2-yl)-1H-pyrazol-4-yl)amino)pyrimidin-4-yl)benzamide], for which the microsomal CLint at 1 μM amounted to 7.27 µL/min/mg in data set [1] and 161 µL/min/mg in data set [2]. Also, the 50% inhibitory concentration (IC50) against JAK2 (setting [4]) worked out at 15.6 nM; at JAK1 (setting [5]) it was 10.4 nM; against TYK2 (setting [6]), 22.1 nM.

Turning to `Cc1cnc(Nc2cnn(C3CCN(C)CC3)c2)nc1-c1ccc(C(=O)N[C@H](C#N)C(C)C)cc1` [Example 174, (S)—N-(1-cyano-2-methylpropyl)-4-(5-methyl-2-((1-(1-methylpiperidin-4-yl)-1H-pyrazol-4-yl)amino)pyrimidin-4-yl)benzamide], the microsomal CLint at 1 μM in data set [1] worked out at 45.7 µL/min/mg; in data set [2] it was 115 µL/min/mg. Also, the IC50 came out at 0.86 nM against JAK2 (setting [4]), 1.28 nM against JAK1 (setting [5]) and 1.33 nM against TYK2 (setting [6]).

As to `Cc1cnc(Nc2cnn(C3C[C@@H](C)O[C@@H](C)C3)c2)nc1-c1ccc(C(=O)N[C@@H](C)C#N)cc1` (stereo partly drawn) [Example 73, N—((S)-1-cyanoethyl)-4-(2-((1-(cis-2,6-dimethyltetrahydro-2H-pyran-4-yl)-1H-pyrazol-4-yl)amino)-5-methylpyrimidin-4-yl)benzamide], the microsomal CLint at 1 μM in data set [1] stood at 268 µL/min/mg; in data set [2], 259 µL/min/mg. Further, the IC50 on JAK1 (setting [5]) came out at 34.4 nM; against TYK2 (setting [6]), 74.4 nM; against JAK2V617F, 8.15 nM.

For the compound `Cc1cnc(Nc2cnn(C3CC3)c2)nc1-c1ccc(C(=O)NC2(C#N)CC2)cc1` [Example 160, N-(1-cyanocyclopropyl)-4-(2-((1-cyclopropyl-1H-pyrazol-4-yl)amino)-5-methylpyrimidin-4-yl)benzamide], the microsomal CLint at 1 μM in data set [1] was 16.9 µL/min/mg; in data set [2] it was 110 µL/min/mg. In addition, the values for the IC50 on JAK2 (setting [4]), on JAK2 (setting [7]) and against TYK2 (setting [8]) were 70.4 nM, 0.73 nM and 17.2 nM, respectively.

For `Cc1cnc(Nc2cnn(CC(F)(F)F)c2)nc1-c1ccc(C(=O)NCC#N)cc1` [Example 28, N-(Cyanomethyl)-4-(5-methyl-2-((1-(2,2,2-trifluoroethyl)-1H-pyrazol-4-yl)amino)pyrimidin-4-yl)benzamide], in data set [3], the AUC (as a rule, concentration integrated over time) is 732 ng·h/mL; the Vd was 0.8 L/kg; the clearance was determined as 22.9 mL/min/kg; the half-life (commonly the time needed for the level to fall by half in the phase considered) is 24 min. Moreover, half-maximal inhibition against JAK2 (setting [4]) (IC50) required 82.2 nM. For the same compound, the IC50 against JAK2 (setting [7]) was 2.73 nM. Besides, the IC50 on JAK2V617F was 193 nM.

As for `Cc1cnc(Nc2cnn(C)c2)nc1-c1ccc(C(=O)NCC2(C#N)CC2)cc1` [Example 12, N-((1-Cyanocyclopropyl)methyl)-4-(5-methyl-2-((1-methyl-1H-pyrazol-4-yl)amino)pyrimidin-4-yl)benzamide], the microsomal CLint at 1 μM in data set [1] worked out at 4.6 µL/min/mg. The microsomal CLint at 1 μM in data set [2] was 132 µL/min/mg. In data set [3], this compound had an AUC of 624 ng·h/mL, a Vd of 0.98 L/kg, a clearance of 27.1 mL/min/kg and a half-life of 26.4 min. Besides, the IC50 on JAK2 (setting [4]) was found to be 95.5 nM. The IC50 against JAK2 (setting [7]) turned out to be 3.2 nM. Further, the IC50 against JAK1 (setting [5]) worked out at 37.5 nM.

Turning to `C[C@H](C#N)NC(=O)c1ccc(-c2nc(Nc3cnn(C)c3)ncc2Cl)cc1` [Example 97, (R)-4-(5-Chloro-2-((1-methyl-1H-pyrazol-4-yl)amino)pyrimidin-4-yl)-N-(1-cyanoethyl)benzamide], the microsomal CLint at 1 μM in data set [1] is 2.39 µL/min/mg; in data set [2], 16.9 µL/min/mg. Also, the IC50 on JAK1 (setting [5]) amounted to 11.3 nM; on TYK2 (setting [6]), 218 nM; against JAK2V617F it was 147 nM.

As to `Cc1cnc(Nc2cnn(C3CCOCC3)c2)nc1-c1ccc(C(=O)NCC#N)cc1` [Example 26, N-(Cyanomethyl)-4-(5-methyl-2-((1-(tetrahydro-2H-pyran-4-yl)-1H-pyrazol-4-yl)amino)pyrimidin-4-yl)benzamide], the values for the microsomal CLint at 1 μM in data set [1] and in data set [2] were 9.3 µL/min/mg and 17.1 µL/min/mg, respectively. Also, the AUC in data set [3] came to 1060 ng·h/mL. Moreover, the Vd in data set [3] was 0.6 L/kg. The compound further returned a clearance in data set [3] of 15.8 mL/min/kg. In addition, the half-life in data set [3] is 30 min. Besides, the IC50 is 1.03 nM at JAK2 (setting [4]), 0.33 nM on JAK2 (setting [7]), 14.1 nM against JAK1 (setting [5]) and 31.1 nM on JAK2V617F.

As to `Cc1cnc(Nc2cnn(C3CC3)c2)nc1-c1ccc(C(=O)NCC#N)cc1` [Example 25, N-(Cyanomethyl)-4-(2-((1-cyclopropyl-1H-pyrazol-4-yl)amino)-5-methylpyrimidin-4-yl)benzamide], the microsomal CLint at 1 μM in data set [1] was determined as 5.19 µL/min/mg; in data set [2] it was 263 µL/min/mg. The compound further yielded an AUC in data set [3] of 607 ng·h/mL. The Vd in data set [3] worked out at 0.6 L/kg. In addition, the clearance in data set [3] turned out to be 29.8 mL/min/kg. Moreover, the half-life in data set [3] is 12 min. Moreover, the IC50 against JAK2 (setting [4]) turned out to be 20.9 nM; against JAK2 (setting [7]) it was 0.69 nM; on JAK1 (setting [5]), 11.2 nM; against JAK1 (IC50 JAK1 (10 nM) (Km ATP), JAK1 10 nM, Km ATP) it was 1.34 nM; at JAK2V617F, 47.5 nM.

For `Cc1cnc(Nc2cnn(C3CCN(C(=O)C4CC4)CC3)c2)nc1-c1ccc(C(=O)N[C@@H](C)C#N)cc1` [Example 163, (S)—N-(1-cyanoethyl)-4-(2-((1-(1-(cyclopropanecarbonyl)piperidin-4-yl)-1H-pyrazol-4-yl)amino)-5-methylpyrimidin-4-yl)benzamide], the microsomal CLint at 1 μM worked out at 68.4 µL/min/mg in data set [1] and 54.9 µL/min/mg in data set [2]. The IC50 at JAK2 (setting [4]) was 0.69 nM; on TYK2 (setting [8]), 12 nM.
